Measured values taken from paper PMC13372822 (The EMBO Journal, 2026).

Legend:
[1] = tested on: OXGR1 mutants (variant named in the endpoint); assay: Calcium mobilization assay, OXGR1 mutants in HEK293; conditions: for Emax: each ligand normalized to WT (100%);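 as to all read-outs here: human OXGR1 variants transiently expressed in HEK293 cells, with intracellular calcium read out by Fluo-4 AM fluorescence, measured 24 h after transfection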
Protocol: (§1) The full-length human SUCR1 and mutations were fused after the HA signal peptide and Flag tag. The constructs were cloned into pcDNA6.0 vector for HEK293 system.
(§2) HEK293 cells were obtained from ATCC (Manassas, VA, USA) and cultured in DMEM supplemented with 10% (v/v) FBS, 100 mg/L penicillin, and 100 mg/L streptomycin in 5% CO2 at 37 °C. For transient transfection, ~2.5 × 10^6 cells were mixed with 2 µg plasmids in 200 µL transfection buffer, and electroporation was carried out with a Scientz-2C electroporation apparatus (Scientz Biotech, Ningbo, China). The experiments were carried out 24 h after transfection. HEK293 cell lines stably expressing Gα16 were constructed by our laboratory.
(§3) For OXGR1, plasmids were transfected into HEK293 (other receptors were transfected into HEK293 stably expressing Gα16) and seeded at a density of 4 × 10^4 per well into 96-well culture plates and incubated for 24 h at 37 °C in 5% CO2. The next day, Cells were incubated with 2 μM/L Fluo-4 AM in HBSS supplemented with 5.6 mM/L D-glucose and 250 μM/L sulfinpyrazone at 37 °C for 45 min. […] Three independent measurements were repeated, i.e., three different transfections, with three technical replicates performed for each experiment. EC50 and Emax values for each curve were calculated by Prism 8.0 software (GraphPad Software).

OXGR1 = OXGR1 (Homo sapiens, UniProt Q96P68); assay: cAMP assay, Gs pathway (OXGR1-Gs-cAMP-Assay); format: cell-based; set-up: The full-length human OXGR1 and mutations were fused after the HA signal peptide and Flag tag; HA signal peptide (N); Flag (N); expressed in transfected cells; host or cells: HEK293 (pcDNA3.0, transient electroporation); conditions: OXGR1 WT
Protocol: In brief, cells expressing OXGR1 were seeded in a plate at a density of 1 × 10^6 cells/well and cultured overnight. After 24 h culture, cells were harvested and re-suspended in DMEM containing 500 µM IBMX at a density of 2 × 10^5 cells/mL. Then, cells were plated onto 384-well assay plates at a density of 1000 cells/5 µL/well. Another 5 µL buffer containing compounds at various concentrations was added to the cells, and the incubation lasted for 30 min at 37 °C. Intracellular cAMP level was tested by a LANCE Ultra cAMP kit (PerkinElmer, TRF0264) and EnVision multiplate reader according to the manufacturer’s instructions.

FFAR3 = biological target: T1, FFAR3 (Homo sapiens, UniProt O14843); assay: Calcium mobilization assay, FFAR3 in HEK293 stably expressing Gα16; format: cell-based; conditions: in words; related receptor
T1 construct: expressed in transfected cells; host or cells: HEK293 stably expressing Gα16
T1 sequence (O14843 1-346): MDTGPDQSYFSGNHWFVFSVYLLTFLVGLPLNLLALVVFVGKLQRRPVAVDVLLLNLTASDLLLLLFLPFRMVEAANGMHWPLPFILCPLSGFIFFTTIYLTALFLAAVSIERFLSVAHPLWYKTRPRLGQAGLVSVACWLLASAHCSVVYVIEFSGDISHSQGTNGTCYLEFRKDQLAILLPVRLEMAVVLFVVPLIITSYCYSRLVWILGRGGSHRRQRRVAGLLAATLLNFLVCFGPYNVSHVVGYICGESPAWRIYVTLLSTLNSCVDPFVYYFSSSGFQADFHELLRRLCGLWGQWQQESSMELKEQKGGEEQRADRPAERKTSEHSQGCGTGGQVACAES
Protocol: as §2, §3

SUCR1 = biological target: T2, SUCR1 (Homo sapiens, UniProt Q9BXA5); assay: Calcium mobilization assay, wild-type SUCR1 in HEK293 stably expressing Gα16; format: cell-based; conditions: in words
T2 construct: The full-length human SUCR1 and mutations were fused after the HA signal peptide and Flag tag; HA signal peptide (N); Flag (N); expressed in transfected cells; host or cells: HEK293 stably expressing Gα16 (pcDNA6.0, transient electroporation)
T2 sequence (Q9BXA5 1-334): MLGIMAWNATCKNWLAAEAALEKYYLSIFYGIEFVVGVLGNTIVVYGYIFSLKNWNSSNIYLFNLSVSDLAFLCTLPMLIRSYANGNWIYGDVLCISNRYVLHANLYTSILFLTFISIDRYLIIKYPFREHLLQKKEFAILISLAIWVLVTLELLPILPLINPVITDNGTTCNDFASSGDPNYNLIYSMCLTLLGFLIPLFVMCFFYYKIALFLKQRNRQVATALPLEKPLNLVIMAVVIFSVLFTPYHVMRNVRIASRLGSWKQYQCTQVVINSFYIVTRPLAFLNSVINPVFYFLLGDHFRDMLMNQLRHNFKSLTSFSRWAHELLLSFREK
Protocol: as §1, §2, §3

In the case of C=C(CC(=O)O)C(=O)O [ITA, itaconate], the EC50 ([1]; OXGR1 D185A) is reported as over 1000 µM, the Emax ([1]; OXGR1 D185A) is reported as 4.9± 2 WT% and the EC50 ([1]; OXGR1 E97A) is reported as over 1000 µM. The Emax ([1]; OXGR1 E97A) was 47± 3 WT%, the EC50 ([1]; OXGR1 F113A) was over 1000 µM and the Emax ([1]; OXGR1 F113A) was 26± 3 WT%. The EC50 ([1]; OXGR1 F113W) was 21.3 ± 2 µM, the “increase in potency by F113W mutation” value ([1]; OXGR1 F113W versus WT) was ~ 2 fold and the Emax ([1]; OXGR1 F113W) was 86± 2 WT%. It also gave an EC50 ([1]; OXGR1 F130D) of over 1000 µM, an Emax ([1]; OXGR1 F130D) of -5.6± 4 WT% and an EC50 ([1]; OXGR1 F130E) of over 1000 µM. It also gave an Emax ([1]; OXGR1 F130E) of -5.3± 3 WT%, an EC50 ([1]; OXGR1 F250A) of over 1000 µM and an Emax ([1]; OXGR1 F250A) of 2.2± 3 WT%. For the same compound, the EC50 ([1]; OXGR1 F254A) was over 1000 µM, the Emax ([1]; OXGR1 F254A) was 0.87± 3 WT% and the EC50 ([1]; OXGR1 F257A) was 52 ± 10 µM. It also gave an Emax ([1]; OXGR1 F257A) of 54± 2 WT%, an EC50 ([1]; OXGR1 F257Y) of 130 ± 40 µM and an Emax ([1]; OXGR1 F257Y) of 120± 10 WT%. For the same compound, the EC50 ([1]; OXGR1 H114A) was over 1000 µM, the Emax ([1]; OXGR1 H114A) was -4.6± 2 WT% and the EC50 ([1]; OXGR1 H114L) was over 1000 µM. For the same compound, the Emax ([1]; OXGR1 H114L) was -5.6± 5 WT%, the EC50 ([1]; OXGR1 H258A) was over 1000 µM and the Emax ([1]; OXGR1 H258A) was 3.0± 6 WT%. For the same compound, the EC50 ([1]; OXGR1 H281A) was 670 ± 60 µM, the Emax ([1]; OXGR1 H281A) was 74±3 WT% and the EC50 ([1]; OXGR1 I121A) was over 1000 µM. For the same compound, the Emax ([1]; OXGR1 I121A) was 15± 5 WT%, the EC50 ([1]; OXGR1 I172A) was over 1000 µM and the Emax ([1]; OXGR1 I172A) was -0.93± 2 WT%. For the same compound, the EC50 ([1]; OXGR1 I285A) was over 1000 µM, the Emax ([1]; OXGR1 I285A) was 34±5 WT% and the EC50 ([1]; OXGR1 L36A) was over 1000 µM. For the same compound, the Emax ([1]; OXGR1 L36A) was 6.5± 8 WT%, the EC50 ([1]; OXGR1 L89A) was over 1000 µM and the Emax ([1]; OXGR1 L89A) was -4.5± 2.0 WT%. It also gave an EC50 ([1]; OXGR1 L117A) of 500 ± 20 µM, an Emax ([1]; OXGR1 L117A) of 63± 4 WT% and an EC50 ([1]; OXGR1 L124A) of over 1000 µM. It also gave an Emax ([1]; OXGR1 L124A) of 36± 3 WT%, an EC50 ([1]; OXGR1 L186A) of over 1000 µM and an Emax ([1]; OXGR1 L186A) of -4.0± 2 WT%. It also gave an EC50 ([1]; OXGR1 L186F) of 180 ± 50 µM, an Emax ([1]; OXGR1 L186F) of 80± 9 WT% and an EC50 ([1]; OXGR1 L299P) of over 1000 µM. The “activation of OXGR1 L299P” value ([1]; OXGR1 L299P, in words) was “abolished”, the EC50 ([1]; OXGR1 M168I) was 510 ± 60 µM and the Emax ([1]; OXGR1 M168I) was 100± 8 WT%. The EC50 ([1]; OXGR1 N28A) was 120 ± 30 µM, the Emax ([1]; OXGR1 N28A) was 100± 8 WT% and the EC50 ([1]; OXGR1 R110A) was over 1000 µM. It also gave an Emax ([1]; OXGR1 R110A) of 6.5± 2 WT%, an EC50 ([1]; OXGR1 R110E) of over 1000 µM and an Emax ([1]; OXGR1 R110E) of -2.0± 3 WT%. It also gave an EC50 ([1]; OXGR1 R110Q) of over 1000 µM, an Emax ([1]; OXGR1 R110Q) of -2.8± 0.7 WT% and an EC50 ([1]; OXGR1 R177A) of 320 ± 90 µM. It also gave an Emax ([1]; OXGR1 R177A) of 110± 3 WT%, an EC50 ([1]; OXGR1 R261A) of over 1000 µM and an Emax ([1]; OXGR1 R261A) of 6.7± 2 WT%. It also gave an EC50 ([1]; OXGR1 R264A) of over 1000 µM, an Emax ([1]; OXGR1 R264A) of 24± 3 WT% and an EC50 ([1]; OXGR1 R268A) of over 1000 µM. For the same compound, the Emax ([1]; OXGR1 R268A) was -4.3± 4 WT%, the EC50 ([1]; OXGR1 R288A) was over 1000 µM and the Emax ([1]; OXGR1 R288A) was 11±7 WT%. The EC50 ([1]; OXGR1 R288E) was over 1000 µM, the EC50 ([1]; OXGR1 R288Q) was over 1000 µM and the Emax ([1]; OXGR1 R288Q) was 14±1 WT%. The EC50 ([1]; OXGR1 Y40A) was over 1000 µM, the Emax ([1]; OXGR1 Y40A) was 6.9± 9 WT% and the EC50 ([1]; OXGR1 Y82A) was over 1000 µM. For the same compound, the Emax ([1]; OXGR1 Y82A) was 56± 7 WT%, the EC50 ([1]; OXGR1 Y93A) was over 1000 µM and the Emax ([1]; OXGR1 Y93A) was 3.3± 2 WT%. The EC50 ([1]; OXGR1 Y284A) was over 1000 µM, the Emax ([1]; OXGR1 Y284A) was -9±2 WT% and the “activation of Gs signaling” value (OXGR1) was “no detectable activation”. For the same compound, the “activation of FFAR3” value (FFAR3) was “no detectable activation” and the “activation of SUCR1” value (SUCR1) was “only minimal activation”.
